In patent US8211445B2, “PSM peptides as vaccine targets against methicillin-resistant Staphylococcus” (The United States of America, as represented by the …, priority 2007, dated 2012):

What was measured:
Assay type in all cases: cell-based
human neutrophils [1] = experiment: Priming of human neutrophils (surface expression of CD11b and gp91phox); settings: PSM-mec vs PSMα3; in the range of other α-type PSMs and δ-toxin, higher than β-type PSMs
Procedure: (§1) Priming of PMNs by synthetic PSMs was determined by increased surface expression of CD11b and gp91phox (granule exocytosis). PMNs were incubated with 10-10,000 ng/ml PSM, 10 μM fMLP, 10 ng/ml lipopolysaccharide, or 10 μg/ml lipoteichoic acid in 96-well tissue culture plates at 37° C. with rotation for 60 minutes. The assay was terminated by centrifuging cells at 4° C. for 8 minutes at 350×g. Cells were washed twice in cold Dulbecco's phosphate-buffered saline and stained with and isotype control antibody (BD Biosciences) or those specific for CD11b (mAb 44, BD Biosciences) or gp91phox (mAb 7D533). Propidium iodide (0.5 μg/ml) was used to identify dead cells. PMNs were analyzed on a FACSCalibur flow cytometer (Becton Dickinson) and dead cells were excluded with a single gate. Percent positive neutrophils were determined with a marker defined by the boundary of the isotype-matched control antibody.
as §1, with “10-10000” for “10-10,000”, “7D5).” for “7D533).”
(§2) Human neutrophil assays: Human neutrophil isolation, chemotaxis, calcium ion flux, priming, lysis assays, and measurement of IL-8 production were performed as described in Example 2.

human neutrophils [2] = experiment: Lysis of human neutrophils (release of lactate dehydrogenase); settings: synthetic PSM peptides at 10 μg/ml, LDH release (FIG. 4A)
Procedure: (§3) Lysis of PMNs by synthetic PSMs or clarified S. aureus culture media was determined essentially as described (Voyich et al., J Infect Dis 194, 1761-70, 2006; Voyich et al., J Immunol 175, 3907-19, 2005). Synthetic PSMs (1 or 10 μg/ml) were added to wells of a 96-well tissue culture plate containing 10^6 PMNs and plates were incubated at 37° C. for up to 3 hours. At the desired times, PMN lysis was determined by release of lactate dehydrogenase (LDH; Cytotoxicity Detection Kit, Roche Applied Sciences). Alternatively, wild-type and isogenic mutant S. aureus strains were cultured for 18 hours at 37° C. in 50 ml TSB with shaking using a 100 ml flask. Bacteria were removed by centrifugation and culture media were sterilized by filtration and stored at −80° C. in aliquots until used. Culture medium was diluted 1:10 in RPMI/H, mixed with human PMNs (10^6) and tested for its ability to cause PMN lysis.
as §3, with “above in Example 2.” for “(Voyich et al., J Infect Dis 194, 1761-70, 2006; Voyich et al., J Immunol 175, 3907-19, 2005).”
as §2

human neutrophils [3] = experiment: Interaction of synthetic PSMs with human neutrophils (overall pro-inflammatory activity); settings: synthetic PSM peptides, comparison among PSMs
Procedure: Neutrophils were subjected to a brief hypotonic shock with pyrogen-free water (Sigma), washed, and suspended at 5×10^6 cells/ml in HBSS containing 0.05% human serum albumin (HSA; CLB). Chemotaxis of neutrophils was determined by using fluorescently-labeled neutrophils that migrated through a membrane fitted into an insert of a 24-well microtiter plate transwell system (Costar) containing a prewetted 3-μm-pore-size polycarbonate filter as described (de Haas et al., J Exp Med 199, 687-95, 2004). […] Calcium fluxes were analyzed with a FACScalibur (Becton Dickinson).
Priming of PMNs by synthetic PSMs was determined by increased surface expression of CD11b and gp91phox (granule exocytosis). […] PMNs were analyzed on a FACSCalibur flow cytometer (Becton Dickinson) and dead cells were excluded with a single gate. Percent positive neutrophils were determined with a marker defined by the boundary of the isotype-matched control antibody.
After isolation and washing, PMN or PBMC were resuspended in RPMI 1640 medium (Sigma) supplemented with 10% human serum, 2 mM L-glutamine, 100 U/ml penicillin, 100 μg/ml streptomycin, 2 mM sodium pyruvate, and 10 mM HEPES. […] After removal of supernatant, cells were resuspended in fresh culture medium, counted, and distributed into a 96-well cell culture plate at 100 μl and 2.5×10^5 cells per well. […]

Substance: fMEFVAKLFKFFKDLLGKFLGNN [PSMα3]
- capacity to activate human neutrophils (surface exposure of gp91phox and CD11b) (human neutrophils [1]): most potent
- lysis of human neutrophils in vitro (human neutrophils [2]): significant lysis
- pro-inflammatory activity (human neutrophils [3]): most pronounced pro-inflammatory activity
